# Values quoted from earlier work in US20200268735A1, “Combination Therapy of Lasmiditan and a CGRP Antagonist for Use in the Treatment of Migraine” (Eli Lilly and Company, priority 2017, published 2020).
# Where two headings read alike, the source gives them in different places.
# How the values were obtained:
# [1] = SPARTAN, lasmiditan 200 mg, p<0.001
# [2] = SAMURAI, lasmiditan 200 mg, p<0.001
# [3] = for reduction in mean monthly migraine headache days: placebo 2.3 days
Molecule,severity of most treatment-emergent adverse events (after the first dose),"headache pain-free and MBS-free endpoints, other dose groups compared to placebo (lasmiditan 100 mg, 50 mg, both endpoints)",most frequently reported TEAEs after the first dose (≥2% and greater than placebo),proportion of patients headache pain-free at 2 hours post-first dose ([1]; placebo 21.3%) [%],proportion of patients most bothersome symptom (MBS)-free at 2 hours post-first dose ([1]; placebo 33.5%) [%],proportion of patients headache pain-free at 2 hours post-first dose ([2]; placebo 15.3%) [%],proportion of patients most bothersome symptom (MBS)-free at 2 hours post-first dose ([2]; placebo 29.5%) [%],adverse events significantly more frequent versus placebo ([3]; 240 mg group),all key secondary endpoints versus placebo ([3]; both doses (120 and 240 mg)),adverse events significantly more frequent versus placebo ([3]; both galcanezumab doses),reduction in mean monthly migraine headache days ([3]; galcanezumab 120 mg once monthly) [days],reduction in mean monthly migraine headache days ([3]; galcanezumab 240 mg once monthly) [days],most common treatment-emergent adverse event ([3]; reported at similar rates in all treatment groups)
"CN1CCC(C(=O)c2cccc(NC(=O)c3c(F)cc(F)cc3F)n2)CC1 [lasmiditan, 2,4,6-trifluoro-N-[6-(1-methyl-piperidin-4-ylcarbonyl)-pyridin-2-yl]-benzamide]",mild-to-moderate,significance was also noted,"dizziness, paresthesia, somnolence, fatigue, nausea, and lethargy",38.8,48.7,32.2,40.7,,,,,,
"galcanezumab: monoclonal antibody targeting calcitonin gene-related peptide (CGRP) (antibody, chains of the INN, looked up, V domains shown) VH: QVQLVQSGAEVKKPGSSVKVSCKASGYTFGNYWMQWVRQAPGQGLEWMGAIYEGTGKTVYIQKFADRVTITADKSTSTAYMELSSLRSEDTAVYYCARLSDYVSGFGYWGQGTTVTVSS VL: DIQMTQSPSSLSASVGDRVTITCRASKDISKYLNWYQQKPGKAPKLLIYYTSGYHSGVPSRFSGSGSGTDFTLTISSLQPEDFATYYCQQGDALPPTFGGGTKVEIK",,,,,,,,significantly more injection site erythema,superior to placebo,significantly more injection site reactions and injection site pruritus,4.3,4.2,Injection site pain
